Results: US10053422B2, “Compounds for the treatment of mTOR pathway related diseases” (Pitney Pharmaceuticals Pty Limited, priority 2012, dated 2018)
“Also recorded” adds a separate entry of the source. Read-outs that look alike come from different tables or passages of the source.

How the values were obtained:
OVCAR-3 cells = experiment: SRB cell proliferation assay, OVCAR-3; assay type: cell-based, human
Experimental: (§1) Cell proliferation was assessed using the sulforhodamine B (SRB) assay. Cells seeded in 96-well plate (2,000-3,000 cell/well) were treated with MPL (0, 1, 5, 10, 25, 50 and 100 μmol/L) for 72 h. Cells were then fixed, washed and stained with 100 μl of 0.4% (w/v) SRB dissolved in 1% acetic acid. Unbound dye was removed by five washes with 1% acetic acid before air drying. Bound SRB was solubilized with 100 μl of 10 mM Tris base (pH 10.5) and the absorbance read at 570 nm. Exactly the same procedure was used to assess MPL-SO2. Both agents were dissolved in ethanol and diluted with media to give the final concentrations required for cell culture assays.

SKOV-3 cells = experiment: SRB cell proliferation assay, SKOV-3; assay type: cell-based; conditions: Homo sapiens, SK-OV-3
Experimental: as §1

PET cells (mesothelioma) = experiment: SRB cell proliferation assay, PET; assay type: cell-based; conditions: for IC50: PET
Experimental: as §1

YOU cells (mesothelioma) = experiment: SRB cell proliferation assay, YOU; assay type: cell-based; conditions: for IC50: YOU
Experimental: as §1

[1] = test system: PC-3 prostate cancer cells; experiment: SRB cell proliferation assay, PC-3; assay type: cell-based
Experimental: as §1

U87 cells (glioblastoma) = experiment: SRB cell proliferation assay, U87; assay type: cell-based; conditions: for IC50: Homo sapiens, U-87 MG
Experimental: as §1

[2] = test system: CHO (Chinese hamster ovarian cells); experiment: SRB cell proliferation assay, CHO; assay type: cell-based; conditions: Cricetulus griseus; CHO = Chinese hamster ovarian cells (Table 3); read-out: IC50 μM CHO
Experimental: as §1

[3] = test system: PARP-1 in OVCAR-3 and A2780 cells; experiment: Western blot of PARP and cleaved PARP; assay type: cell-based, human; conditions: MPL 0, 5, 10, 25 μM; 24, 48 or 72 h
Experimental: OVCAR-3 and A2780 cells grown under cell culture conditions were incubated with various concentrations of MPL [0, 5, 10, 25 μM] for 24, 48 or 72 hours. Cell lysates were then prepared and analysed by western blotting for the determination of PARP and cleaved PARP.
Exposure of OVCAR-3 or A2780 cells to MPL (0, 5, 10, 25 μM) for 24, 48 or 72 h causes cleavage of PARP, which leads to cellular disassembly and serves as a marker of dying cells.
Protein expression in cells was determined using western blot analysis. After treatment with the indicated concentrations of MPL, cell lysates were prepared and probed with antibodies for cdk2, cdk4, cyclin A, cyclin E, PARP-1 (1:1000 dilutions; Cell Signalling Technology), and p53 (1:200 dilutions; Santa Cruz Biotechnology).
To investigate whether the MPL-induced cell death involves cleavage of PARP, western blot analysis of lysates of MPL-treated cells for PARP-1 and cleaved PARP-1 was carried out. Cleavage of PARP-1 promotes apoptosis by preventing DNA-repair-induced survival.

c-Myc and cyclin D1 = experiment: Western blot of c-Myc and cyclin D1 in OVCAR-3 cells; assay type: cell-based, human; conditions: 0, 5, 10, 15 and 25 μM MPL for 48 hours
Experimental: In further experiments, after treatment with the indicated concentrations of MPL, cell lysates were prepared and probed with antibodies for c-Myc, cyclin D1, cyclin E, cdk2, cdk4, IGF-1R (Cell Signalling Technology), and (anta Cruz Biotechnology, Australia).

OVCAR-3 tumors = experiment: s.c. OVCAR-3 xenograft growth in nude mice; assay type: in vivo, female nude mice
Experimental: 2.5 million log-phase growing OVCAR-3 cells were injected s.c. into the left flank of each mouse. Tumor growth was monitored by caliper measurements and tumor volumes were determined through measuring orthogonal diameters. Estimated tumor volume was calculated based on the formula ½ (Length×Width2), where width is the shorter of the two orthogonal measurements. Treatment was initiated 7 days post tumor cell injection before which, mice were randomized and assigned to treatment or the control group (6 per group). […] Control group were treated with the vehicle only.
Log-phase growing OVCAR-3 cells were injected s.c. into the left flank of each mouse. Tumor growth was monitored by caliper measurements and tumor volumes were determined through measuring orthogonal diameters. Estimated tumor volume was calculated based on the formula ½ (Length×Width2), where width is the shorter of the two orthogonal measurements. Treatment was initiated 7 days post tumor cell injection before which, mice were randomized and assigned to treatment or the control group (6 per group). […] Control group were treated with the vehicle only.
OVCAR-3 cells were injected s.c. into the left flank of each mouse. Tumor growth was monitored by caliper measurements and tumor volumes were determined of orthogonal diameters, and the estimated tumor volume was calculated based on the formula ½ (Length×Width2), where width is the shorter of the two orthogonal measurements. Treatment was initiated 7 days post tumor cell injection before which, mice were randomized and assigned to treatment or the control group (6 per group). […] Control group were treated orally with the vehicle only.
Mice were inoculated in the left flank with 2.5 million log-phase growing human OVCAR-3 cells. Tumor growth was monitored by caliper measurements and tumor volumes were determined through measuring orthogonal diameters. Estimated tumor volume was calculated based on the formula ½ (Length×Width2), where width is the shorter of the two orthogonal measurements. Treatment was initiated 7 days post tumor cell injection before which, mice were randomized and assigned to treatment or the control group (5-6 per group).
Female nude mice (6 weeks old) were purchased from Biological Resources (Faculty of Medicine, University of New South Wales). An institutional animal ethics approval covered all procedures carried out on mice. […] Animals were weighed once weekly while their tumor volumes were determined twice weekly. Tumor growth was monitored by caliper measurements of orthogonal diameters, and the estimated tumor volume was calculated based on the formula ½ (Length×Width^2), where width is the shorter of the two orthogonal measurements. Based on institutional ethics approval, mice were euthanized before the tumor volume reached 500 mm^3. Treatment was initiated on day 8 after tumor cell injection when mice were randomized and assigned to treatment or the control group (6 per group). Monepantel was suspended in sterile 0.5% (w/v) hydroperoxymethyl cellulose (HPMC). Drug was administered i.p. 3 times weekly at 25 or 50 mg/kg. Control group was treated with sterile vehicle (0.5% HPMC). Mice were treated for a period of 3 weeks. Twenty four hours post-last drug administration, mice were euthanized and their tumors excised and frozen at −80° C. until analysis.
In alternative experiments, treatment was initiated on day 8 post tumor cell inoculation when mice were randomized and assigned to one of MPL or vehicle treated groups (5-6 mice per group). MPL was suspended in hydroperoxy methylcellulose (0.5% w/v HPMC), sterilized by sonnicator and administered every other day either intraperitoneally (i.p) or orally as gavage (100 μL).

[4] = test system: mTOR signaling in s.c. grown OVCAR-3 tumors; experiment: Western blot of tumor lysates, mTOR related signaling; assay type: in vivo, female nude mice
Experimental: Western blot analysis of tumor lysates prepared from s.c. grown OVCAR-3 tumors in female nude mice. Mice were treated from day 8 post cell inoculation i.p. for 3 weeks with MPL (25, 50 mg/kg suspended in 0.5% HPMC given i.p.) or the vehicle (0.5% HPMC). 24 hours after the last dose, tumors were excised and frozen at −80° C. […] Protein expression of mTOR together with c-Myc, cyclins D1 and E2 and CDKs 2 and 4 were suppressed in tumors excised from MPL treated mice.
Female nude mice (6 weeks old) were purchased from Biological Resources (Faculty of Medicine, University of New South Wales). An institutional animal ethics approval covered all procedures carried out on mice. Briefly, 2.5×10^6 log-phase growing OVCAR-3 cells were injected s.c. into the left flank of each mouse. Animals were weighed once weekly while their tumor volumes were determined twice weekly. Tumor growth was monitored by caliper measurements of orthogonal diameters, and the estimated tumor volume was calculated based on the formula ½ (Length×Width^2), where width is the shorter of the two orthogonal measurements. Based on institutional ethics approval, mice were euthanized before the tumor volume reached 500 mm^3. Treatment was initiated on day 8 after tumor cell injection when mice were randomized and assigned to treatment or the control group (6 per group). […]

[5] = test system: NF-κB signal transduction pathway in LPS-stimulated RAW 264.7 cells; experiment: NF-κB signal transduction in LPS-stimulated macrophages; assay type: cell-based
Excerpt: LPS-stimulated RAW 264.7 cells macrophages were used as an in vitro model system for inflammation.

[6] = cited from earlier work
[7] = mesothelioma (Table 2), read-out: IC50 in suppressing proliferation
[8] = mesothelioma, 72 h, SRB assay (Table 1), read-out: IC50
[9] = highly resistant to chemotherapy

C[C@](C#N)(COc1cc(C#N)ccc1C(F)(F)F)NC(=O)c1ccc(SC(F)(F)F)cc1 [MPL, N-[(1S)-1-Cyano-2-(5-cyano-2-trifluoromethyl-phenoxy)-1-methyl-ethyl]-4-trifluoromethylsulfanyl-benzamide]
IC50 (OVCAR-3 cells; Homo sapiens, OVCAR-3, ovarian cancer, 72 h in vitro treatment, SRB assay (Table 1), read-out: IC50): 6.3 µM | IC50 (OVCAR-3 cells; OVCAR-3, human epithelial ovarian cancer (Table 3), read-out: IC50 μM OVCAR-3): 7.9 ± 0.9 µM | potency of MPL-(R) compared with MPL-(S) (OVCAR-3 cells; results of Table 3): equipotent | IC50 (SKOV-3 cells; SKOV-3, ovarian cancer (Table 2), read-out: IC50 in suppressing proliferation): 31.2 ± 0.76 µM | IC50 (SKOV-3 cells; SKOV-3, ovarian cancer, 72 h, SRB assay (Table 1), read-out: IC50): 29.3 µM | IC50 (PET cells (mesothelioma); [7]): 26 µM | IC50 (PET cells (mesothelioma); [8]): 26.3 µM | replication of PET cells (PET cells (mesothelioma); [9]): profoundly suppressed | IC50 (YOU cells (mesothelioma); [7]): 23 µM | IC50 (YOU cells (mesothelioma); [8]): 23.1 µM | replication of YOU cells (YOU cells (mesothelioma); [9]): profoundly suppressed | IC50 ([1]; PC-3, prostate cancer (Table 2), read-out: IC50 in suppressing proliferation): 21 µM | IC50 ([1]; PC-3, prostate cancer, 72 h, SRB assay (Table 1), read-out: IC50): 21.6 µM | effect on PC-3 cells ([1]; chemo-resistant, androgen insensitive PC-3): very effective | IC50 (U87 cells (glioblastoma); U87, glioblastoma, 72 h, SRB assay (Table 1), read-out: IC50): 26.2 µM | IC50 (U87 cells (glioblastoma); U87, glioma (Table 2), read-out: IC50 in suppressing proliferation): 18 µM | replication of U87 cells (U87 cells (glioblastoma); [9]): profoundly suppressed | IC50 [2]: 34.6 µM | cleavage of PARP [3]: PARP was cleaved; also recorded: highly induced cleavage of PARP | c-Myc and cyclin D1 expression (c-Myc and cyclin D1): down-regulation of c-Myc and cyclin D1 expression | tumor growth, initial trial (OVCAR-3 tumors; 25 mg/kg i.p., three times weekly (trial with 2.5 or 25 mg/kg)): particularly effective | tumor growth (OVCAR-3 tumors; 50 mg/kg dose (both i.p. and oral), three times weekly): profoundly retarding tumor growth | tumor growth, second trial (OVCAR-3 tumors; 50 mg/kg i.p. (trial with 25 and 50 mg/kg)): more effective in retarding tumor growth | doses at which anticancer effects are observed in animal models (OVCAR-3 tumors; animal models): 5 to 50 mg/kg | tumor histology (OVCAR-3 tumors; tumor tissue from the in vivo trials): massive areas of tumor cell death; also recorded: extensive necrosis | tumor mTOR signaling (Western blot) ([4]; 25, 50 mg/kg i.p. for 3 weeks, tumors excised 24 hours after last dose): suppression of mTOR signaling | tumor expression of cyclin D1 ([4]; MPL treated tumor bearing mice): dramatic down-regulation of cyclin D1 | IKK phosphorylation [5]: inhibitory effect | IL-6 expression [5]: down regulation of IL-6 expression | IκB-α phosphorylation [5]: inhibitory effect | NF-κB p65 phosphorylation [5]: inhibitory effect | NO expression [5]: abrogates NO expression | TGF-β expression [5]: down regulation of TGF-β expression | NF-κB activation ([5]; immunocytochemistry and Western blot): decreased NF-κB activation | clinical tolerance ([6]; 1000 mg of MPL per kg of body weight per 24 hours, mammals): well tolerated | dose tolerated by animals when used as an anthelmintic ([6]; animals): up to 2000 mg/kg | single-dose toxicity ([6]; single dose): > 2000 mg per kg of body weight
